# Patent US12414990B2, “Use of HLA-A*11:01-restricted hepatitis B virus (HBV) peptides for identifying HBV-specific CD8+ T cells” (AGENCY FOR SCIENCE, TECHNOLOGY AND RESEARCH, priority 2019, dated 2025)
# “Also recorded” adds a separate entry of the source.
# Key:
# [1] = tested on: virus-specific CD8+ T cells in patient PBMC; assay: In vitro virus-specific CD8+ T cell expansion by peptide stimulation with intracellular cytokine staining; format: cell-based, human
# Procedure: PBMC from patients were thawed and recovered, and then resuspend in AIM-V medium (with 2% human AB serum, 1% penicillin/streptomycin/L-glutamine, 1% 1M HEPES) (Gibco, Invitrogen) with 20 IU/ml of recombinant human IL-2 (R&D). Cells were pulsed with corresponded HBV or control peptides at 1 μM per 1 million cells in 200 μl medium in 96-well round-bottom tissue culture plate and cultured for 10 days at 37° C. Half of the medium was replaced as supplementary every three days without any peptide. […] After incubation, cells were collected and then stained with the 50-plex pMHC tetramers (table S1) and surface antibodies. Intracellular cytokine staining was performed on the second day as indicated in (table S2). All staining, cellular barcoding, and CD8 T cell enrichment were done in the same manner as ex vivo staining described above.
# [2] = tested on: antigen-specific CD8+ T cells; assay: High-dimensional phenotypic profiling of antigen-specific CD8+ T cells (t-SNE, Phenograph, One-SENSE, Scorpius); format: cell-based, human
# Procedure: Validated antigen-specific CD8+ T cells were exported individually from each donor for dimensionality reduction analysis. Detailed methodology for t-SNE and One-SENSE can be found elsewhere. Briefly, t-SNE and One-SENSE were performed using custom R scripts based on “flowCore” and “Rtsne” packages downloaded from The Comprehensive R Archive Network (CRAN). All data were transformed using the “logicleTransform” function and w=0.25, t=16409, m=4.5, a=0 as input parameters to roughly match scaling historically used in FlowJo. Cellular markers analyzed by t-SNE and One-SENSE were indicated (table S2). For One-SENSE, cellular markers in each T cell category (“Differentiation+TNFR”, “Exhaustion” and “Trafficking”) were subjectively assigned for categorical analysis. Aligned heatplots represent the distribution of marker positive cells in percentage on each “bin” on the axis (category) constructed by cells residing in small ranges of values. Positive population of markers was manually defined and markers of the same category were combined for each dimension using 250 bins.
# Logistic regression was performed using the drc R package (v 3.0.1) using a 3-parameters logistic model.
# [3] = tested on: HLA-A*11:01-restricted antigen-specific CD8+ T cells in patient's PBMC; assay: Highly multiplexed combinatorial pMHC tetramer staining with mass cytometry (epitope mapping, frequency of antigen-specific CD8+ T cells); settings: ex vivo PBMC; groups IT, IA, InA, R, HD, CB
sequence,measurement,setting,value
LVVDFSQFSR (Hepatitis B virus) [HBV-P-387],expansion of antigen-specific CD8+ T cells upon peptide stimulation,"[1]; 10 days in vitro culture, 1 μM peptide",less expanded in IT patients
same,functional subset of virus-specific CD8+ T cells after antigen recall (One-SENSE),"[1]; 10 days in vitro peptide stimulation, restimulation 7 hours",multi-functional subset
same,numbers of co-expressed inhibitory receptors on epitope-specific CD8+ T cells,"[2]; Boolean strategy, across patient groups",no differences in terms of the numbers accumulated on the cells across patient groups
same,proportion of cells with C13-like phenotype (CXCR3+CD27hiCD127hi) within HBVpol387-specific CD8+ T cells,[2]; IT patients,~80%
same,detection / frequency of epitope-specific CD8+ T cells across patient groups,[3],highest frequencies observed; also recorded: relatively high frequency in CHB and also in half of the HD tested
